Results as given in ChEMBL document CHEMBL1157740, “The discovery of novel tartrate-based TNF-alpha converting enzyme (TACE) inhibitors” (Bioorg Med Chem Lett, 2010).

Tests used:
[1] = target: Disintegrin and metalloproteinase domain-containing protein 17 (Homo sapiens, UniProt P78536); assay: Inhibition of TACE
Matrilysin = target: T1, Matrilysin (Homo sapiens, UniProt P09237); assay: Inhibition of MMP7
T1 sequence (P09237 whole entry): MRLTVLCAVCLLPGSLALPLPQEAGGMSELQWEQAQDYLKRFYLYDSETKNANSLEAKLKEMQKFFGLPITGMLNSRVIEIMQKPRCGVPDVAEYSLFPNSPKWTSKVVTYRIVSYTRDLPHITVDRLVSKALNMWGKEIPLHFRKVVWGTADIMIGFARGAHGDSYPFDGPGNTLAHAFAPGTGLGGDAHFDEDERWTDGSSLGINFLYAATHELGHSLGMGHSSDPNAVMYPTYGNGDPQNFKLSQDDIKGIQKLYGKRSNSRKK

[2] = target: Matrix metalloproteinase-14 (Homo sapiens, UniProt P50281); assay: Inhibition of MMP14
[3] = target: T2, Disintegrin and metalloproteinase domain-containing protein 10 (Homo sapiens, UniProt O14672); assay: Inhibition of ADAM10
T2 sequence (O14672 whole entry): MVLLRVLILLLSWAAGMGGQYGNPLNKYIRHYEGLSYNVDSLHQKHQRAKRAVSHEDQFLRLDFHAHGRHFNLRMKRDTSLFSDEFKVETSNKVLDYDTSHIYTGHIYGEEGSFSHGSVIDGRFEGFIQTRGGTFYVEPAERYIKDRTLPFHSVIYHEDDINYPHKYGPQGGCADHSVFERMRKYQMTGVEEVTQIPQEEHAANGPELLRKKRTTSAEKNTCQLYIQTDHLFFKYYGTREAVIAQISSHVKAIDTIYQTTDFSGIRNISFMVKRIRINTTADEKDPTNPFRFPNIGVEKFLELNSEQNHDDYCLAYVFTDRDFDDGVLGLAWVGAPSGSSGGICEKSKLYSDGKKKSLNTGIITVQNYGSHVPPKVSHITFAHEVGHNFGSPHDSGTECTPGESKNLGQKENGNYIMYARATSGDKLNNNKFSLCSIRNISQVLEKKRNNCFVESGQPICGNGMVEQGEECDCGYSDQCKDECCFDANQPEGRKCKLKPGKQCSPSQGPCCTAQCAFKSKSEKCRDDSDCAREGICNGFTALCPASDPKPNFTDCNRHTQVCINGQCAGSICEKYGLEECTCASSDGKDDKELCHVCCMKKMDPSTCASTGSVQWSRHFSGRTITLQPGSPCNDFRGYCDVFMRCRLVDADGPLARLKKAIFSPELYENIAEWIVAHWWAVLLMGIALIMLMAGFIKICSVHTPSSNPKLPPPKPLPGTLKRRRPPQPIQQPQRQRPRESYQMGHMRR

[4] = target: Macrophage metalloelastase (Homo sapiens, UniProt P39900); assay: Inhibition of MMP12
Interstitial collagenase = target: T3, Interstitial collagenase (Homo sapiens, UniProt P03956); assay: Inhibition of MMP1
T3 sequence (P03956 whole entry): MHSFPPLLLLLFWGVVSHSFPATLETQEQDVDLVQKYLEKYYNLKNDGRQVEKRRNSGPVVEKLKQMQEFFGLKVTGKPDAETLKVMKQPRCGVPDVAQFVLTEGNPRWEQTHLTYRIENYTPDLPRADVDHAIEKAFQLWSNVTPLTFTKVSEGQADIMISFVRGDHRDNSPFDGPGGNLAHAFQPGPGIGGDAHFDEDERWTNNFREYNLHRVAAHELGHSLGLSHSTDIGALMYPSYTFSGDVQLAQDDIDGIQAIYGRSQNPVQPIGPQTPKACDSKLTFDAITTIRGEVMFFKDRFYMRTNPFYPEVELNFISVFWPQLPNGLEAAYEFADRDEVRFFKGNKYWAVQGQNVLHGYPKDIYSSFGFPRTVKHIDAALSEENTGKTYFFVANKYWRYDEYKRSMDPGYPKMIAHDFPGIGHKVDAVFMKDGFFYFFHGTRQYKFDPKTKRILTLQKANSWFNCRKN

[5] = target: 72 kDa type IV collagenase (Homo sapiens, UniProt P08253); assay: Inhibition of MMP2
Stromelysin-1 = Stromelysin-1 (Homo sapiens, UniProt P08254); assay: Inhibition of MMP3
Collagenase 3 = Collagenase 3 (Homo sapiens, UniProt P45452); assay: Inhibition of MMP13

Sequence of Disintegrin and metalloproteinase domain-containing protein 17 (P78536 whole entry, the tested form may be a part): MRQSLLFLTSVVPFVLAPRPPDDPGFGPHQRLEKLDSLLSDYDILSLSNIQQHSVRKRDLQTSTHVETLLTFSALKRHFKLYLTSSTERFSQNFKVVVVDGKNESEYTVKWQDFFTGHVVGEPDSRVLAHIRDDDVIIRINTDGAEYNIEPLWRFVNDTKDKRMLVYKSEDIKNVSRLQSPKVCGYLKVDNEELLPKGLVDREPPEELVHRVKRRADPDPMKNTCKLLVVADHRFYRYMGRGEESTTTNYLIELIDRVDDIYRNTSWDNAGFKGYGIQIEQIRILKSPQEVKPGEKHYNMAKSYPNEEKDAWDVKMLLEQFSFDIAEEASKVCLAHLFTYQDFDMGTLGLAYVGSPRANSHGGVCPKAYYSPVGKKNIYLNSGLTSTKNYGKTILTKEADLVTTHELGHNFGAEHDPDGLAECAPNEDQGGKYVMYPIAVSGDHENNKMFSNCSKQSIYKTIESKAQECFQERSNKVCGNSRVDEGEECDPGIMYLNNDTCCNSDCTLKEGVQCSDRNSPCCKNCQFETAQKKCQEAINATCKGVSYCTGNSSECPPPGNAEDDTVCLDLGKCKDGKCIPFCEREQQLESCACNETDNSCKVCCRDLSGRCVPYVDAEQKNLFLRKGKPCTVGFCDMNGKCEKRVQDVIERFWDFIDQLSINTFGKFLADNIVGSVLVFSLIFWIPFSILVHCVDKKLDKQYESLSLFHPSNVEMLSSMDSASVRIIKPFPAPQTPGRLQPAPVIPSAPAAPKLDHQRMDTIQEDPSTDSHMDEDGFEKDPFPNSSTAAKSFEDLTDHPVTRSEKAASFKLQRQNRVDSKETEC
Sequence of 72 kDa type IV collagenase (P08253 whole entry): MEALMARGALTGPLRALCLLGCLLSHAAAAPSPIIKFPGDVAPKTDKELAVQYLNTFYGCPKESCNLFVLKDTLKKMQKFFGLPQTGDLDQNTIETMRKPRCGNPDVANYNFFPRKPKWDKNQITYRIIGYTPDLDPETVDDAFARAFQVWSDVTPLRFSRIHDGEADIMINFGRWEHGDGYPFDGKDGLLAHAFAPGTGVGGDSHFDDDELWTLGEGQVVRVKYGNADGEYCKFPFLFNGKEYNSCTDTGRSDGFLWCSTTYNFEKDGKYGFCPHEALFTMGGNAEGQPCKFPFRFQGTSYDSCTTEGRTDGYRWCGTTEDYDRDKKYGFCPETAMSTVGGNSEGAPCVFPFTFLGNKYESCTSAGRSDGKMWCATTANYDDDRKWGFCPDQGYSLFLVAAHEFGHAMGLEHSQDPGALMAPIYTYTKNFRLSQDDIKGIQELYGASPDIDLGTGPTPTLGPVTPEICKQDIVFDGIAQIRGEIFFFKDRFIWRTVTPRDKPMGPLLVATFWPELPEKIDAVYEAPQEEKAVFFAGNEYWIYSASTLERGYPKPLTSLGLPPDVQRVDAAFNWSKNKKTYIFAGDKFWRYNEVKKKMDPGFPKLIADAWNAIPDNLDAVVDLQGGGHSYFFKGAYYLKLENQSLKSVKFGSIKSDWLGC
Sequence of Stromelysin-1 (P08254 whole entry): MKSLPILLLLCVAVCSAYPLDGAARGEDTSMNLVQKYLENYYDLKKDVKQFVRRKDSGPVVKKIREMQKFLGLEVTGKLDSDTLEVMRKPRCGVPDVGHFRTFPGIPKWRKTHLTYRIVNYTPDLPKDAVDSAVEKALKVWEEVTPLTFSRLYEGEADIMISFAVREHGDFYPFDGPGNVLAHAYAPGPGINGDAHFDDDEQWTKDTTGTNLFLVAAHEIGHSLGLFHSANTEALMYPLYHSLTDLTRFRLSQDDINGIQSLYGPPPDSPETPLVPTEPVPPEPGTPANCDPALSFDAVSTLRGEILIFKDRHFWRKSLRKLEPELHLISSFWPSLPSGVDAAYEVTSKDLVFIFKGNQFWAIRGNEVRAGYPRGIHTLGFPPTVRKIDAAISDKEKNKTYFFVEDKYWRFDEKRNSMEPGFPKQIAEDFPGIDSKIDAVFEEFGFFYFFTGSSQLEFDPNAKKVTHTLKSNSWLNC
Sequence of Macrophage metalloelastase (P39900 whole entry): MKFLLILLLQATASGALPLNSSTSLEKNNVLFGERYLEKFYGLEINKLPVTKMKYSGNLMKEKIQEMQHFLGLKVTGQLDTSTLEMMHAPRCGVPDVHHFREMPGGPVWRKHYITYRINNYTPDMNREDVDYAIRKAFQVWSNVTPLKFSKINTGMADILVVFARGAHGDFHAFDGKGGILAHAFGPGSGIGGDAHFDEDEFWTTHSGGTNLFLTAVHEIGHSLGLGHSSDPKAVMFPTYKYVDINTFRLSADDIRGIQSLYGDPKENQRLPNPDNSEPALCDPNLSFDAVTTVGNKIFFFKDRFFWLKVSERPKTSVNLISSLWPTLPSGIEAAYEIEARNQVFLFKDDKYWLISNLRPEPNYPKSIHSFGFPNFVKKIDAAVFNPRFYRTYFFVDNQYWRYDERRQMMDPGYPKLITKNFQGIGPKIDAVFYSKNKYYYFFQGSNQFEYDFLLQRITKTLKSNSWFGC

Row | SMILES | Ki ([1]; read-out: Ki) | other results
1 | O=C(NCCc1cccs1)[C@H](O)CC(=O)N1CCCC1c1cccc(Cl)c1 (some centres undefined) | – | Ki [1]: Not Active
2 | O=C(NCCc1cccs1)[C@H](O)[C@@H](O)c1nccs1 | 5530 nM | –
3 | O=C(NCc1cc(CC2C=CC=CC2Cl)cs1)[C@H](O)[C@@H](O)C(=O)N1CCC[C@@H]1c1cccc(Cl)c1 (some centres undefined) | 13 nM | –
4 | C[C@@H](c1ccccc1)N(C)C(=O)[C@H](O)[C@@H](O)C(=O)NCCc1cccs1 | 487 nM | –
5 | O=C(NCc1cc(Cc2ccccc2)cs1)[C@H](O)[C@@H](O)C(=O)N1CCCC1c1ccc(F)cc1 (some centres undefined) | 93 nM | –
6 | O=C(NCCc1nc(Cc2ccccc2)cs1)[C@H](O)[C@@H](O)C(=O)N1CCCC1c1ccccc1 (some centres undefined) | 48 nM | –
7 | O=C(NCc1cc2ccccc2o1)[C@H](O)[C@@H](O)C(=O)N1CCCC1c1ccccc1 (some centres undefined) | 160 nM | Ki (Matrilysin): > 50000 nM; Ki [2]: 140 nM; Ki [3]: 734 nM; Ki (Interstitial collagenase): 18700 nM; Ki [5]: 300 nM; Ki (Stromelysin-1): 7700 nM; Ki (Collagenase 3): 510 nM
8 | O=C(NCc1nc(Cc2ccccc2)cs1)[C@H](O)[C@@H](O)C(=O)N1CCCC1c1ccccc1 (some centres undefined) | 8 nM | –
9 | O=C(NCc1nc(Cc2ccccc2)co1)[C@H](O)[C@@H](O)C(=O)N1CCCC1c1ccccc1 (some centres undefined) | 22 nM | –
10 | CN(Cc1ccccc1)C(=O)[C@H](O)[C@@H](O)C(=O)NCCc1cccs1 | 764 nM | –
11 | CN(CCc1ccccc1)C(=O)[C@H](O)[C@@H](O)C(=O)NCCc1cccs1 | 1280 nM | –
12 | C[C@H](c1ccccc1)N(C)C(=O)[C@H](O)[C@@H](O)C(=O)NCCc1cccs1 | 238 nM | –
13 | O=C(NCCc1cccs1)[C@H](O)[C@@H](O)C(=O)N1CCCCC1c1ccccc1 (some centres undefined) | 325 nM | –
14 | O=C(NCCc1cccs1)[C@H](O)[C@@H](O)C(=O)N1CCC(c2ccccc2)C1 (some centres undefined) | 456 nM | –
15 | O=C(NCCc1cccs1)[C@H](O)[C@@H](O)C(=O)N1CCN(c2ccccn2)CC1 | 2500 nM | –
16 | CN(C)C(=O)[C@H](O)[C@@H](O)C(=O)NCCc1cccs1 | 1300 nM | –
17 | CN(C(=O)[C@H](O)[C@@H](O)C(=O)NCCc1cccs1)C1CCCCC1 | 1400 nM | –
18 | O=C(NCCc1cccs1)[C@H](O)[C@@H](O)C(=O)NCc1ccccc1 | – | Ki [1]: Not Active
19 | O=C(NCCc1cccs1)[C@H](O)[C@@H](O)C(=O)N1CCc2ccccc2C1 | 91 nM | –
20 | O=C(NCCc1cccs1)[C@H](O)[C@@H](O)C(=O)N1CCCC1c1nccs1 (some centres undefined) | 164 nM | –
21 | COc1cccc(N2CCN(C(=O)[C@H](O)[C@@H](O)C(=O)NCCc3cccs3)CC2)c1 | 400 nM | –
22 | CN(Cc1cccnc1)C(=O)[C@H](O)[C@@H](O)C(=O)NCCc1cccs1 | 943 nM | –
23 | O=C(NCc1ccc(Cc2ccccc2)cc1)[C@H](O)[C@@H](O)C(=O)N1CCCC1c1cccc(Cl)c1 (some centres undefined) | 70 nM | –
24 | O=C(C[C@@H](O)C(=O)N1CCCC1c1cccc(Cl)c1)NCCc1cccs1 (some centres undefined) | – | Ki [1]: Not Active
25 | O=C(NCCc1cc(Cc2ccccc2)cs1)[C@H](O)[C@@H](O)C(=O)N1CCCC1c1ccccc1 (some centres undefined) | 66 nM | Ki (Matrilysin): 6000 nM; Ki [2]: > 30000 nM; Ki [3]: > 25000 nM; Ki [4]: 700 nM; Ki (Interstitial collagenase): > 50000 nM; Ki [5]: > 50000 nM; Ki (Collagenase 3): 3600 nM
26 | Cn1ccnc1[C@H](O)[C@@H](O)C(=O)NCCc1cccs1 | 10600 nM | –
27 | CN(CCc1cccs1)C(=O)[C@H](O)[C@@H](O)C(=O)N1CCN(c2ccccc2Cl)CC1 | – | Ki [1]: Not Active
28 | CN(Cc1ccco1)C(=O)[C@H](O)[C@@H](O)C(=O)NCCc1cccs1 | 1020 nM | –
29 | O=C(NCCc1cccs1)[C@H](O)[C@@H](O)C(=O)N1CCCC1c1ccccn1 (some centres undefined) | 188 nM | –
30 | O=C(NCCc1nc(Cc2ccccc2)co1)[C@H](O)[C@@H](O)C(=O)N1CCCC1c1ccccc1 (some centres undefined) | 461 nM | –

Continued, in another order:

Row | Ki ([1]; read-out: Ki) | SMILES | other results
31 | 323 nM | O=C(NCCc1cccs1)[C@H](O)[C@@H](O)C(=O)N1CCCC1c1ccccc1Cl (some centres undefined) | –
32 | 11 nM | O=C(NCCc1cccs1)[C@H](O)[C@@H](O)C(=O)N1CCCC1c1cccc(Cl)c1 (some centres undefined) | Ki (Matrilysin): > 50000 nM; Ki [2]: 11000 nM; Ki [3]: 29 nM; Ki [4]: > 50000 nM; Ki (Interstitial collagenase): > 50000 nM; Ki [5]: 33000 nM; Ki (Stromelysin-1): 17000 nM; Ki (Collagenase 3): 20000 nM
33 | 13 nM | Cc1cccc(C2CCCN2C(=O)[C@H](O)[C@@H](O)C(=O)N(C)CCc2cccs2)c1 (some centres undefined) | –
34 | 33 nM | COc1cccc(C2CCCN2C(=O)[C@H](O)[C@@H](O)C(=O)N(C)CCc2cccs2)c1 (some centres undefined) | –
35 | 1110 nM | O=C([C@H](O)[C@@H](O)C(=S)NCc1cc(Cc2ccccc2Cl)cs1)N1CCCC1c1cccc(Cl)c1 (some centres undefined) | –
36 | 41 nM | CN(C)c1cccc(C2CCCN2C(=O)[C@H](O)[C@@H](O)C(=O)NCCc2cccs2)c1 (some centres undefined) | –
37 | 1100 nM | O=C(NCCc1cccs1)[C@H](O)[C@@H](O)C(=O)N1CCC(Cc2ccccc2)CC1 | –
38 | 755 nM | O=C(NCCc1cccs1)[C@H](O)[C@@H](O)C(=O)N1CCCC1c1ccc(Cl)cc1 (some centres undefined) | –
39 | 1520 nM | O=C(NCc1cc(Cc2ccccc2Cl)cs1)[C@H](O)[C@@H](O)C(=S)N1CCCC1c1cccc(Cl)c1 (some centres undefined) | –
40 | 20 nM | O=C(NCCc1cccs1)[C@H](O)[C@@H](O)C(=O)N1CCC[C@@H]1c1ccccc1 | –
41 | 66 nM | O=C(NCCc1cccs1)[C@H](O)[C@@H](O)C(=O)N1Cc2ccccc2C1 | –
42 | 400 nM | O=C(NCCc1cccs1)[C@H](O)[C@@H](O)C(=O)N1CCN(c2ccccc2Cl)CC1 | Ki (Matrilysin): > 60000 nM; Ki [2]: > 40000 nM; Ki [3]: 400 nM; Ki [4]: 9000 nM; Ki (Interstitial collagenase): > 90000 nM; Ki [5]: > 30000 nM; Ki (Stromelysin-1): > 50000 nM; Ki (Collagenase 3): 7000 nM
43 | 1440 nM | O=C(NCc1ccccc1)[C@H](O)[C@@H](O)C(=O)N1CCCC1c1cccc(Cl)c1 (some centres undefined) | –
44 | 96 nM | O=C(NCCc1cccs1)[C@H](O)[C@@H](O)C(=O)N1CCCC1c1ccccc1 (some centres undefined) | –
